doi:10.1101/810010v1 (biorxiv, 2019)

Target: Syt1 C2B (Mus musculus, UniProt P46096)
Test: […]-1H HSQC NMR titration, global fit of chemical shifts, single-site model
Type: binding

Syt1 C2B, sequence (P46096 271-421): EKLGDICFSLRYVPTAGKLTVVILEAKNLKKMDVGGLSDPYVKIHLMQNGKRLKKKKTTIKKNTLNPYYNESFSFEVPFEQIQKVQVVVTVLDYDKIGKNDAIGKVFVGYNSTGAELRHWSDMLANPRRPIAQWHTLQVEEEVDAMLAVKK

## CCCC(=O)OC[C@H](COP(=O)(O)O[C@@H]1[C@H](O)[C@H](O)[C@@H](OP(=O)(O)O)[C@H](OP(=O)(O)O)[C@H]1O)OC(=O)CCC [di-C4-PtdIns(4,5)P2]
  Kd: 215 ± 16 µM
